Where no end group is shown, it is not given here.
Columns and labels:
Assay in all cases: Histone peptide microarray
Format in all cases: binding, human
[1] = system: AIRE (PP); conditions: AIRE (PP), GST-tagged; arrays performed twice, n of 4
How it was run: (§1)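 GST-PHD reader, 0.5 μM, probed on 293-peptide histone array (single/combinatorial PTMs); optimized array protocol; signal = mean ± SD, n = 4.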

[2] = system: BAZ2B; conditions: BAZ2B, GST-tagged; arrays performed twice, n of 4
How it was run: as §1

[3] = system: BPTF (PB); conditions: BPTF (PB), GST-tagged; arrays performed twice, n of 4
How it was run: as §1

[4] = system: CHD4 (PPCC); conditions: CHD4 (PPCC), GST-tagged; arrays performed twice, n of 4
How it was run: as §1

[5] = system: CHD5 (PCC); conditions: CHD5 (PCC), GST-tagged; arrays performed twice, n of 4
How it was run: as §1

[6] = system: CHD5 (PPCC); conditions: CHD5 (PPCC), GST-tagged; arrays performed twice, n of 4
How it was run: as §1

[7] = system: DIDO1; conditions: DIDO1, GST-tagged; arrays performed twice, n of 4
How it was run: as §1

[8] = system: DPF2 (PPC2W2); conditions: DPF2 (PPC2W2), GST-tagged; arrays performed twice, n of 4
How it was run: as §1

[9] = system: ING1; conditions: ING1, GST-tagged; arrays performed twice, n of 4
How it was run: as §1

[10] = system: ING2; conditions: ING2, GST-tagged; arrays performed twice, n of 4
How it was run: as §1

[11] = system: ING3; conditions: ING3, GST-tagged; arrays performed twice, n of 4
How it was run: as §1

[12] = system: ING4; conditions: ING4, GST-tagged; arrays performed twice, n of 4
How it was run: as §1

[13] = system: ING5; conditions: ING5, GST-tagged; arrays performed twice, n of 4
How it was run: as §1

[14] = system: KDM4C (TTP); conditions: KDM4C (TTP), GST-tagged; arrays performed twice, n of 4
How it was run: as §1

[15] = system: KDM5A (1); conditions: KDM5A (1), GST-tagged; arrays performed twice, n of 4
How it was run: as §1

[16] = system: KDM5A (3); conditions: KDM5A (3), GST-tagged; arrays performed twice, n of 4
How it was run: as §1

[17] = system: KDM5B (1); conditions: KDM5B (1), GST-tagged; arrays performed twice, n of 4
How it was run: as §1

[18] = system: KDM5B (3); conditions: KDM5B (3), GST-tagged; arrays performed twice, n of 4
How it was run: as §1

[19] = system: KDM7A; conditions: KDM7A, GST-tagged; arrays performed twice, n of 4
How it was run: as §1

[20] = system: MLL5; conditions: MLL5, GST-tagged; arrays performed twice, n of 4
How it was run: as §1

[21] = system: MORC3 (CW); conditions: MORC3 (CW), GST-tagged; arrays performed twice, n of 4
How it was run: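 GST-tagged PHD finger readers were expressed, purified and applied at 0.5 μM to a microarray of 293 synthetic histone peptides carrying single or combinatorial PTMs, using an optimized protocol. Binding signals are averages with standard deviation from 4 replicates.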

[22] = system: PHF13; conditions: PHF13, GST-tagged; arrays performed twice, n of 4
How it was run: as §1

[23] = system: PHF21A; conditions: PHF21A, GST-tagged; arrays performed twice, n of 4
How it was run: as §1

[24] = system: PHF23; conditions: PHF23, GST-tagged; arrays performed twice, n of 4
How it was run: as §1

[25] = system: PHF2; conditions: PHF2, GST-tagged; arrays performed twice, n of 4
How it was run: as §1

[26] = system: PHF8; conditions: PHF8, GST-tagged; arrays performed twice, n of 4
How it was run: as §1

[27] = system: PHRF1 (RP); conditions: PHRF1 (RP), GST-tagged; arrays performed twice, n of 4
How it was run: as §1

[28] = system: RAG2; conditions: RAG2, GST-tagged; arrays performed twice, n of 4
How it was run: as §1

[29] = system: SP140L; conditions: SP140L, GST-tagged; arrays performed twice, n of 4
How it was run: as §1

[30] = system: TAF3; conditions: TAF3, GST-tagged; arrays performed twice, n of 4
How it was run: as §1

[31] = system: TRIM66 (PB); conditions: TRIM66 (PB), GST-tagged; arrays performed twice, n of 4
How it was run: as §1

Substance	Array Heatmap value (peptide array binding signal) [1]	Array Heatmap value (peptide array binding signal) [2]	Array Heatmap value (peptide array binding signal) [3]	Array Heatmap value (peptide array binding signal) [4]	Array Heatmap value (peptide array binding signal) [5]	Array Heatmap value (peptide array binding signal) [6]	Array Heatmap value (peptide array binding signal) [7]	Array Heatmap value (peptide array binding signal) [8]	Array Heatmap value (peptide array binding signal) [9]	Array Heatmap value (peptide array binding signal) [10]	Array Heatmap value (peptide array binding signal) [11]	Array Heatmap value (peptide array binding signal) [12]	Array Heatmap value (peptide array binding signal) [13]	Array Heatmap value (peptide array binding signal) [14]	Array Heatmap value (peptide array binding signal) [15]	Array Heatmap value (peptide array binding signal) [16]	Array Heatmap value (peptide array binding signal) [17]	Array Heatmap value (peptide array binding signal) [18]	Array Heatmap value (peptide array binding signal) [19]	Array Heatmap value (peptide array binding signal) [20]	also measured
H4K12ac + KQ5,8,16,20: H4 1-23 (SGRGQGGQGLGK(Ac)GGAQRHRQVLR; UniProt P62805 2-24, looked up, variant K5Q K8Q K16Q K20Q)	0.4232	0.4631	0.3429	0.5868	0.8241	0.5319	0.7417	0.6849	0.553	0.6036	0.4727	0.4387	0.347	0.445	0.4416	0.4384	0.6598	0.4684	0.3252	0.5826	Array Heatmap value (peptide array binding signal) [21]: 0.3596; Array Heatmap value (peptide array binding signal) [22]: 0.611; Array Heatmap value (peptide array binding signal) [23]: 0.4355; Array Heatmap value (peptide array binding signal) [24]: 0.5714; Array Heatmap value (peptide array binding signal) [25]: 0.578; Array Heatmap value (peptide array binding signal) [26]: 0.3437; Array Heatmap value (peptide array binding signal) [27]: 0.4941; Array Heatmap value (peptide array binding signal) [28]: 0.2487; Array Heatmap value (peptide array binding signal) [29]: 0.3381; Array Heatmap value (peptide array binding signal) [30]: 0.2598; Array Heatmap value (peptide array binding signal) [31]: 0.6047
H4K12me1: H4 1-23 [Peptide H4K12me1]	0.4018	0.3991	0.2963	0.5189	0.7543	0.4573	0.5928	0.6545	0.4711	0.5919	0.3932	0.3881	0.2899	0.4116	0.4194	0.3966	0.6336	0.384	0.3046	0.4865	Array Heatmap value (peptide array binding signal) [21]: 0.309; Array Heatmap value (peptide array binding signal) [22]: 0.5207; Array Heatmap value (peptide array binding signal) [23]: 0.4184; Array Heatmap value (peptide array binding signal) [24]: 0.4708; Array Heatmap value (peptide array binding signal) [25]: 0.4095; Array Heatmap value (peptide array binding signal) [26]: 0.3037; Array Heatmap value (peptide array binding signal) [27]: 0.3919; Array Heatmap value (peptide array binding signal) [28]: 0.2114; Array Heatmap value (peptide array binding signal) [29]: 0.3238; Array Heatmap value (peptide array binding signal) [30]: 0.2302; Array Heatmap value (peptide array binding signal) [31]: 0.515
H4K20ac: H4 1-23 [Peptide H4K20ac]	0.423	0.4009	0.3137	0.5173	0.7369	0.4774	0.5747	0.5691	0.4651	0.5829	0.4032	0.4009	0.3047	0.4301	0.4202	0.374	0.6134	0.5071	0.3276	0.5228	Array Heatmap value (peptide array binding signal) [21]: 0.3311; Array Heatmap value (peptide array binding signal) [22]: 0.5544; Array Heatmap value (peptide array binding signal) [23]: 0.3977; Array Heatmap value (peptide array binding signal) [24]: 0.4966; Array Heatmap value (peptide array binding signal) [25]: 0.4522; Array Heatmap value (peptide array binding signal) [26]: 0.3218; Array Heatmap value (peptide array binding signal) [27]: 0.3806; Array Heatmap value (peptide array binding signal) [28]: 0.2177; Array Heatmap value (peptide array binding signal) [29]: 0.3288; Array Heatmap value (peptide array binding signal) [30]: 0.2578; Array Heatmap value (peptide array binding signal) [31]: 0.5321

— publication PMC6979384, “Characterization of the plant homeodomain (PHD) reader family for their histone tail interactions” (Epigenetics & Chromatin, 2020)
